In patent US9814238B2, “Herbicide composition” (ISHIHARA SANGYO KAISHA, LTD., priority 2013, dated 2017):

Legend:
Type in all cases: in vivo
[1] = test system: large crabgrass (Digitaria sanguinalis L.); test: Test Example 4: foliar treatment of large crabgrass in orchard field, visual growth inhibition rate; details: foliar treatment at height 50 to 55 cm, 23rd day after treatment
Source text: (§1) When the herbicidal activity in a case where two active ingredients are combined, is larger than the simple sum of the respective herbicidal activities of the two active ingredients (the expected activity), it is called a synergistic effect. The activity expected by the combination of two active ingredients can be calculated as follows (Colby S. R., “Weed”, vol. 15, p. 20-22, 1967). E=α+β−(α×β÷100) where α: growth inhibition rate when treated with x (g/ha) of herbicide X,
(§2) β: growth inhibition rate when treated with y (g/ha) of herbicide Y,
(§3) E: growth inhibition rate expected when treated with x (g/ha) of herbicide X and y (g/ha) of herbicide Y.
(§4) That is, when the actual growth inhibition rate (measured value) is larger than the growth inhibition rate by the above calculation (calculated value), the activity by the combination can be regarded as showing a synergistic effect.
(§5) An orchard field was compartmentalized into 0.5 square meter per test section. When large crabgrass (Digitaria sanguinalis L.) which naturally grew thereafter reached a height of from 50 to 55 cm, predetermined amounts of ME formulation containing tiafenacil as an active ingredient (the same as in Test Example 3) and WG formulation containing flazasulfuron as an active ingredient (the same as in Test Example 1) were diluted with water (in an amount corresponding to 300 L/ha) containing 0.5 vol % of an agricultural adjuvant (tradename: Destiny HC, manufactured by Winfield Solutions LLC.) and applied for foliar treatment by a small sprayer.
On the 23rd day after treatment, the state of growth of the […] was visually observed to determine the growth inhibition rate in accordance with the same evaluation standard as in Test Example 1. The growth inhibition rate (%) (measured value) and the growth inhibition rate (%) (calculated value) calculated by the Colby's formula are shown in Table 4.

[2] = test system: common horsetail (Equisetum arvense); test: Test Example 5: foliar treatment of common horsetail in orchard field, visual growth inhibition rate; details: foliar treatment at height 15 to 20 cm, 23rd day after treatment
Source text: as §1, §2, §3, §4
as §5, with “section,” for “section.”, “common horsetail (Equisetum arvense)” for “large crabgrass (Digitaria sanguinalis L.)”, “15” for “50”, “20” for “55”
On the 23rd day after treatment, the state of growth of the common horsetail was visually observed to determine the growth inhibition rate in accordance with the same evaluation standard as in Test Example 1. The growth inhibition rate (%) (measured value) and the growth inhibition rate (%) (calculated value) calculated by the Colby's formula are shown in Table 5.

[3] = test system: common dayflower (Commelina communis L.); test: Test Example 3: foliar treatment of common dayflower in orchard field, visual growth inhibition rate; details: foliar treatment at height 35 to 40 cm, 23rd day after treatment
Source text: as §1, §2, §3, §4
as §5, with “common dayflower (Commelina communis” for “large crabgrass (Digitaria sanguinalis”, “35” for “50”, “40” for “55”, “a microemulsion (ME formulation)” for “ME formulation”, “prepared by a conventional method” for “as an active ingredient (the same as in Test Example 3)”
On the 23rd day after treatment, the state of growth of the common dayflower was visually observed to determine the growth inhibition rate in accordance with the same evaluation standard as in Test Example 1. The growth inhibition rate (%) (measured value) and the growth inhibition rate (%) (calculated value) calculated by the Colby's formula are shown in Table 3.

[4] = test system: large crabgrass (Digitaria sanquinalis L.); test: Test Example 1: foliar treatment of large crabgrass in vat, visual growth inhibition rate; details: foliar treatment at 7-leaf stage, 24th day after treatment
Source text: as §1, §2, §3, §4
Upland field soil was put into a 1/1,000,000 ha vat, and seeds of large crabgrass (Digitaria sanquinalis L.) were sown. When the large crabgrass reached 7-leaf stage, predetermined amounts of an emulsifiable concentrate (EC formulation) containing tiafenacil prepared by a conventional method, water dispersible granules containing flazasulfuron as an active ingredient (WG formulation, tradename: SHIBAGEN DF manufactured by Ishihara Sangyo Kaisha, Ltd.), were diluted with water in an amount corresponding to 300 L/ha, and applied for foliar treatment by a small sprayer.
On the 24th day after treatment, the state of growth of the large crabgrass was visually observed to determine the growth inhibition rate in accordance with the following evaluation standard. The growth inhibition rate (%) (measured value) and the growth inhibition rate (%) (calculated value) calculated by the Colby's formula are shown in Table 1. Growth inhibition rate (%)=0 (equivalent to the non-treated area) to 100 (complete kill)

[5] = test system: large crabgrass (Digitaria sanguinalis L.); test: Test Example 2: soil treatment of large crabgrass in pot, visual growth inhibition rate; details: soil treatment day after sowing, 14th day after treatment
Source text: as §1, §2, §3, §4
Upland field soil was put into a 1/500,000 ha pot, and seeds of large crabgrass (Digitaria sanguinalis L.) were sown. […]
On the 14th day after treatment, the state of growth of the large crabgrass was visually observed to determine the growth inhibition rate in accordance with the same evaluation standard as in Test Example 1. The growth inhibition rate (%) (measured value) and the growth inhibition rate (%) (calculated value) calculated by the Colby's formula are shown in Table 2.

Row | SMILES | Growth inhibition rate (%) of large crabgrass, Measured value ([1]; dose 25 g/ha) [%] | Growth inhibition rate (%) of large crabgrass, Measured value ([1]; dose 50 g/ha) [%] | Growth inhibition rate (%) of large crabgrass, Measured value ([1]; dose 100 g/ha) [%] | Growth inhibition rate (%) of common horsetail, Measured value ([2]; dose 25 g/ha) [%] | Growth inhibition rate (%) of common horsetail, Measured value ([2]; dose 50 g/ha) [%] | Growth inhibition rate (%) of common horsetail, Measured value ([2]; dose 100 g/ha) [%] | Growth inhibition rate (%) of common horsetail, Measured value ([2]; dose 150 g/ha) [%] | Growth inhibition rate (%) of common dayflower, Measured value ([3]; dose 25 g/ha) [%] | Growth inhibition rate (%) of common dayflower, Measured value ([3]; dose 50 g/ha) [%] | Growth inhibition rate (%) of large crabgrass, Measured value ([4]; dose 12.5 g/ha) [%] | Growth inhibition rate (%) of large crabgrass, Measured value ([4]; dose 25 g/ha) [%] | Growth inhibition rate (%) of large crabgrass, Measured value ([5]; dose 50 g/ha) [%] | inhibition at 40 g/ha ([1]; Digitaria sanguinalis, dose 40 g/ha, read-out: Growth inhibition rate (%) of large crabgrass, Measured value) [%] | inhibition at 20 g/ha ([2]; Equisetum arvense, dose 20 g/ha, read-out: Growth inhibition rate (%) of common horsetail, Measured value) [%] | inhibition at 40 g/ha ([2]; Equisetum arvense, dose 40 g/ha, read-out: Growth inhibition rate (%) of common horsetail, Measured value) [%] | inhibition at 20 g/ha ([3]; Commelina communis, dose 20 g/ha, read-out: Growth inhibition rate (%) of common dayflower, Measured value) [%] | inhibition at 40 g/ha ([3]; Commelina communis, dose 40 g/ha, read-out: Growth inhibition rate (%) of common dayflower, Measured value) [%] | inhibition at 20 g/ha ([4]; Digitaria, dose 20 g/ha, read-out: Growth inhibition rate (%) of large crabgrass, Measured value) [%] | inhibition at 20 g/ha ([5]; Digitaria sanguinalis, dose 20 g/ha, read-out: Growth inhibition rate (%) of large crabgrass, Measured value) [%]
1 | COC(=O)CCNC(=O)C(C)Sc1cc(-n2c(=O)cc(C(F)(F)F)n(C)c2=O)c(F)cc1Cl (racemic) [Tiafenacil, methyl 3-((2RS)-2-{2-chloro-4-fluoro-5-[1,2,3,6-tetrahydro-3-methyl-2,6-dioxo-4-(trifluoromethyl)pyrimidin-1(6H)-yl]phenylthio}propionamido]propionate] | 5 | 5 | 8 | 63 | 63 | 68 | 55 | 50 | 60 | 20 | 30 | 65 | – | – | – | – | – | – | –
2 | COc1cc(OC)nc(NC(=O)NS(=O)(=O)c2ncccc2C(F)(F)F)n1 [Flazasulfuron, 1-(4,6-dimethoxypyrimidin-2-yl)-3-(3-trifluoromethyl-2-pyridylsulfonyl)urea] | – | – | – | – | – | – | – | – | – | – | – | – | 33 | 55 | 53 | 45 | 40 | 40 | 60
